Assay results as given in patent US11685744B2, “CDK inhibitors and their use as pharmaceuticals” (Prelude Therapeutics, Incorporated, priority 2020, dated 2023).
pIC50: −log10 of the molar value.

Assays:
CDK4/Cyclin D1 = CDK4/Cyclin D1 (Homo sapiens (Human), UniProt P11802); experiment: CDK4/CyclinD1 enzymatic activity assay (TR-FRET); assay type: biochemical; details: ATP 2 mM, read-out: CDK4_D1 IC50
Summary of the method: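 Insect-cell CDK4/Cyclin D1 (1 nM) with ULight-4E-BP1 (100 nM) and 2 mM ATP in HEPES pH 7.4 buffer, preincubated 20 min with compound (9-dose, 3-fold dilutions); 10 mM MgCl2 started the reaction, run 60 min at 37 °C. EDTA/Eu-anti-phospho-4E-BP1 TR-FRET detection; IC50 from 4-parameter Hill fit.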

CDK6/Cyclin D1 = CDK6/Cyclin D1 (Homo sapiens (Human), UniProt Q00534); experiment: CDK6/CyclinD1 enzymatic activity assay (TR-FRET); assay type: biochemical; details: ATP 250 μM, read-out: CDK6_D1 IC50
Description: CDK6/CyclinD1 Enzymatic Activity Assay
The inhibitory activity of compounds was evaluated in vitro using TR-FRET assay with white 384-well low volume microplate (Greiner Bio-One). CDK6/Cyclin D1 catalyzed phosphorylation of peptide in the presence and absence of compounds was measured and used in IC50 determination. Recombinant protein complex CDK6/Cyclin D1, expressed from insect cell, was purchased from ProQinase. Testing compounds were dissolved in DMSO at 0.1 mM and tested in 9-dose IC50 mode. The reaction mixture was prepared by mixing CDK6/Cyclin D1 (1 nM final), ULight-4E-BP1 (100 nM final, Perkinelmer, TRF0128-D), and ATP (250 μM final) in assay buffer (20 mM of HEPES pH 7.4, 1 mM of EGTA, 0.05% BSA, 0.005% Tween 20, and 1 mM TCEP). The compound of interest in DMSO was added to each well in 3-fold serial dilution by dispenser (TECAN D300E). After 20 minutes preincubation at room temperature, 0.1 μL MgCl2 (10 mM final) was added to initiate the reaction. Following a 60 minutes incubation at 37° C., the reaction was stopped by addition of 2 μL of quenching buffer consisting of Lance detection buffer (Perkinelmer CR97-100C), 2 nM LANCE Ultra Europium-anti-P-4E-BP1 (Perkinelmer, TRF0216-D), 10 mM EDTA, and incubate at room temperature for additional 60 minutes in dark. The reaction signal was measured by Envision multimode plate reader (PerkinElmer, 2102-0010). IC50 values were determined by fitting the data to the standard 4 parameters with Hill Slope using GraphPad Prism software.

[1] = system: MCF7 adenocarcinoma cell line; experiment: Cell proliferation studies in MCF7 cells (ATP-Lite, 10 days); assay type: cell-based; details: Homo sapiens, 240 h, read-out: PROLIFERATION_CTG_MCF7 IC50
Summary of the method: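 Cells were seeded at 100 or 200 per well in DMEM with 10% FBS and dosed in quadruplicate over a 9-point 3-fold dilution. Incubation lasted 10 days at 37 °C, with media exchange and re-dosing on day 5. Viability was read by ATP-Lite luminescence and normalised to background and DMSO, giving IC50.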

[2] = Brain-to-plasma ratio (Kp) determination in Sprague-Dawley rats; details: male, rat, po, 10 mg/kg
Description: The brain-to-plasma ratio (Kp) was determined in male Sprague-Dawley rats (7-9 weeks old) four hours after a single oral dose. Rats were acclimated and given free access to standard rodent chow and water throughout the entire study. Test articles were formulated as a solution at 0.3, 0.4, 0.5, or 1.0 mg/mL in a vehicle comprised of 10:15:75 (v:v:v) dimethylacetamide (DMA):Solutol HS15:water and delivered orally at a rate of 10 mL/kg to three rats to achieve final doses of 3, 4, 5, or 10 mg/kg, respectively. At 4 hours post-dose, blood samples were collected via jugular vein cannula into tubes containing K2EDTA as the anticoagulant and stored on ice. Blood samples were then centrifuged at 4° C. at 6000 rpm for 5 minutes, and the resulting plasma was placed into tubes and stored frozen at −80° C. until analysis. Whole brain samples were also collected at 4 hours post-dose. The weight of each brain was measured and recorded, and samples were immediately stored on dry ice. Brain samples were then transferred to storage at −80° C. until analysis.
Prior to analysis, brain samples were combined with water (4 mL/1 gram of brain) and homogenized. Prior to injection, plasma and brain homogenate samples and standards were prepared for analysis by precipitation with acetonitrile or 1:1 (v:v) methanol:acetonitrile. Samples were then thoroughly mixed, centrifuged at 4000 rpm for 15 minutes, and the resulting supernatant was transferred for analysis. Test article concentrations in plasma and brain homogenate were then determined by LC-MS/MS and quantified against calibration standards prepared to known concentrations in matched blank (analyte-free) biological matrix. The Kp was then determined by dividing the dilution-corrected brain concentration by the plasma concentration from each rat. A brain density of 1 gram/mL was assumed for all calculations.

[3] = brain (homogenate) versus plasma

Chain of CDK6/Cyclin D1 (Q00534 whole entry): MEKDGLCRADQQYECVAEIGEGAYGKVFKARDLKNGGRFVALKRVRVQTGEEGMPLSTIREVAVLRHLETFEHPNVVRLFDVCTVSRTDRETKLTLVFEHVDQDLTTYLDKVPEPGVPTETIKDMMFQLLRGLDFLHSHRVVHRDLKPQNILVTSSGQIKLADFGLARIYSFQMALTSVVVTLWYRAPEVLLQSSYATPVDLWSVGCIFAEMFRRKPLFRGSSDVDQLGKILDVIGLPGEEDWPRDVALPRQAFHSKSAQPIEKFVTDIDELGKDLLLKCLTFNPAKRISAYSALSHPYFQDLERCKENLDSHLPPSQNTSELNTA
Chain of CDK6/Cyclin D1 (P24385 whole entry partner): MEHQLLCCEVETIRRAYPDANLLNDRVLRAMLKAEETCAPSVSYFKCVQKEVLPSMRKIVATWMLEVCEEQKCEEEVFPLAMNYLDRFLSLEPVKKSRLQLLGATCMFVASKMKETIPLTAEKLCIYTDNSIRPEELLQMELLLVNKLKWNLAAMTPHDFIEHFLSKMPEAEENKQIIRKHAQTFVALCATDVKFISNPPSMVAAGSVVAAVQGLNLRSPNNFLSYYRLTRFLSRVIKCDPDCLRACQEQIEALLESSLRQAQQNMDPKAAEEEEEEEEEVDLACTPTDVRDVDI
Chain of CDK4/Cyclin D1 (P11802 whole entry): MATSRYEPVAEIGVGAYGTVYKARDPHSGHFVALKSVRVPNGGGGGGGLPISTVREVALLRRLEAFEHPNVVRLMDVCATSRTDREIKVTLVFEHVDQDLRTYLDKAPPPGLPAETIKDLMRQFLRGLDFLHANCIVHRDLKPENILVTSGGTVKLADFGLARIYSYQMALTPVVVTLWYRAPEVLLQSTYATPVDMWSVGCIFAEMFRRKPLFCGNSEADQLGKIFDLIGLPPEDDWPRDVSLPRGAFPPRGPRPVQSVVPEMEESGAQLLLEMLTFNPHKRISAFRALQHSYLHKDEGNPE
Chain of CDK4/Cyclin D1 (P24385 whole entry partner): as the sequence (P24385 whole entry partner) above

Row | pIC50 (CDK4/Cyclin D1) | pIC50 (CDK6/Cyclin D1) | pIC50 [1] | Kp at 4 h [2, 3] | Kp at 4 h ([2]; brain / plasma) | SMILES
1 | ≥ 7.70 | ≥ 7.70 | ≥ 7.70 | 1 to 3 |  | CCN1CCN(c2ccc(Nc3ncc(F)c(-c4sc5c(nc(C)n5C(C)C)c4C)n3)nc2)CC1 [Example 2, N-(5-(4-Ethylpiperazin-1-yl)pyridin-2-yl)-5-fluoro-4-(3-isopropyl-2,6-dimethyl-3H-thieno[2,3-d]imidazol-5-yl)pyrimidin-2-amine]
2 | ≥ 7.70 | 6.70 to 7.70 | 6.70 to 7.70 | < 1 |  | CCN1CCN(Cc2ccc(Nc3ncc(F)c(-c4sc5c(nc(C)n5C(C)C)c4C)n3)nc2)CC1 [Example 3, N-(5-((4-Ethylpiperazin-1-yl)methyl)pyridin-2-yl)-5-fluoro-4-(3-isopropyl-2,6-dimethyl-3H-thieno[2,3-d]imidazol-5-yl)pyrimidin-2-amine]
3 | ≥ 7.70 | ≥ 7.70 | ≥ 7.70 | 1 to 3 |  | Cc1c(-c2nc(Nc3ccc(N4CCN(C)CC4)cn3)ncc2F)sc2c1nc(C)n2C(C)C [Example 9, 5-Fluoro-4-(3-isopropyl-2,6-dimethyl-3H-thieno[2,3-d]imidazol-5-yl)-N-(5-(4-methylpiperazin-1-yl)pyridin-2-yl)pyrimidin-2-amine]
4 | ≥ 7.70 | 6.70 to 7.70 | 6.70 to 7.70 | > 3 |  | CCN1CC2(C1)CN(c1ccc(Nc3ncc(F)c(-c4cc5nccc(C(C)C)c5s4)n3)nc1)C2 [Example 23, N-[5-(6-Ethyl-2,6-diazaspiro[3.3]heptan-2-yl)pyridin-2-yl]-5-fluoro-4-(7-propan-2-ylthieno[3,2-b]pyridin-2-yl)pyrimidin-2-amine]
5 | ≥ 7.70 | ≥ 7.70 | 6.70 to 7.70 |  | > 3 | Cc1c(-c2nc(Nc3ccc(N4CCN(C)CC4)cn3)ncc2F)sc2c(C(C)C)cn(C)c(=O)c12 [Example 51, 2-[5-Fluoro-2-[[5-(4-methylpiperazin-1-yl)pyridin-2-yl]amino]pyrimidin-4-yl]-3,5-dimethyl-7-propan-2-ylthieno[3,2-c]pyridin-4-one]
6 | ≥ 7.70 | ≥ 7.70 | ≥ 7.70 | 1 to 3 |  | CCN1CC2(C1)CN(c1ccc(Nc3ncc(F)c(-c4sc5c(nc(C)n5C(C)C)c4C)n3)nc1)C2 [Example 52, 4-(2,6-Dimethyl-3-propan-2-ylthieno[2,3-d]imidazol-5-yl)-N-[5-(6-ethyl-2,6-diazaspiro[3.3]heptan-2-yl)pyridin-2-yl]-5-fluoropyrimidin-2-amine]
7 | ≥ 7.70 | ≥ 7.70 | 6.70 to 7.70 | > 3 |  | CCN1CC2(C1)CN(c1ccc(Nc3ncc(F)c(-c4sc5c(C(C)C)n(C)nc5c4C)n3)nc1)C2 [Example 55, 4-(2,6-Dimethyl-3-propan-2-ylthieno[3,2-c]pyrazol-5-yl)-N-[5-(6-ethyl-2,6-diazaspiro[3.3]heptan-2-yl)pyridin-2-yl]-5-fluoropyrimidin-2-amine]
8 | ≥ 7.70 | ≥ 7.70 | 6.70 to 7.70 | 1 to 3 |  | CCN1CC2(C1)CN(c1ccc(Nc3ncc(F)c(-c4sc5c(C(C)C)cn(C)c(=O)c5c4C)n3)nc1)C2 [Example 57, 2-(2-((5-(6-Ethyl-2,6-diazaspiro[3.3]heptan-2-yl)pyridin-2-yl)amino)-5-fluoropyrimidin-4-yl)-7-isopropyl-3,5-dimethylthieno[3,2-c]pyridin-4(5H)-one]
9 | ≥ 7.70 | ≥ 7.70 | ≥ 7.70 | 1 to 3 |  | Cc1c(-c2nc(Nc3ccc(N4CC5(CCN(C)C5)C4)cn3)ncc2F)sc2c(C(C)C)cn(C)c(=O)c12 [Example 61, 2-(5-Fluoro-2-((5-(6-methyl-2,6-diazaspiro[3.4]octan-2-yl)pyridin-2-yl)amino)pyrimidin-4-yl)-7-isopropyl-3,5-dimethylthieno[3,2-c]pyridin-4(5H)-one]
10 | ≥ 7.70 | 6.70 to 7.70 | 6.70 to 7.70 | 1 to 3 |  | Cc1c(-c2nc(Nc3ccc(N4CCC(N(C)C)C4)cn3)ncc2F)sc2c1nc(C)n2C(C)C (stereo not drawn) [Example 73, N-[5-[3-(Dimethylamino)pyrrolidin-1-yl]pyridin-2-yl]-4-(2,6-dimethyl-3-propan-2-ylthieno[2,3-d]imidazol-5-yl)-5-fluoropyrimidin-2-amine]

The remaining lines, values behind:

Row | SMILES | pIC50 (CDK4/Cyclin D1) | pIC50 (CDK6/Cyclin D1) | pIC50 [1] | Kp at 4 h [2, 3] | Kp at 4 h ([2]; brain / plasma)
11 | Cc1c(-c2nc(Nc3ccc(C4CCCN(C)C4)cn3)ncc2F)sc2c1ncn2C(C)C (single isomer, unassigned) [Example 125, 5-Fluoro-N-[5-[-1-methylpiperidin-3-yl]pyridin-2-yl]-4-(6-methyl-3-propan-2-ylthieno[2,3-d]imidazol-5-yl)pyrimidin-2-amine] | ≥ 7.70 | ≥ 7.70 | 6.70 to 7.70 | 1 to 3 | 
12 | CCN1CCN(c2ccc(Nc3ncc(F)c(-c4sc5c(nc(C)n5C5CCCC5)c4C)n3)nc2)CC1 [Example 1, 4-(3-Cyclopentyl-2,6-dimethyl-3H-thieno[2,3-d]imidazol-5-yl)-N-(5-(4-ethylpiperazin-1-yl)pyridin-2-yl)-5-fluoropyrimidin-2-amine] | ≥ 7.70 | 6.70 to 7.70 | 6.70 to 7.70 | 1 to 3 | 
13 | CCN1CCN(c2ccc(Nc3ncc(F)c(-c4sc5c(nc(C)n5C5CCC5)c4C)n3)nc2)CC1 [Example 4, 4-(3-Cyclobutyl-2,6-dimethylthieno[2,3-d]imidazol-5-yl)-N-[5-(4-ethylpiperazin-1-yl)pyridin-2-yl]-5-fluoro-pyrimidin-2-amine] | ≥ 7.70 | ≥ 7.70 | 6.70 to 7.70 | 1 to 3 | 
14 | CCN1CCN(c2ccc(Nc3ncc(F)c(-c4cc5c(s4)c(C(C)C)cc[n+]5[O-])n3)nc2)CC1 [Example 50, N-[5-(4-Ethylpiperazin-1-yl)pyridin-2-yl]-5-fluoro-4-(4-oxido-7-propan-2-ylthieno[3,2-b]pyridin-4-ium-2-yl)pyrimidin-2-amine] | ≥ 7.70 | ≥ 7.70 | ≥ 7.70 | 1 to 3 | 
15 | CCN1CCN(C(=O)c2ccc(Nc3ncc(F)c(-c4cc5nc(C)n(C(C)C)c5s4)n3)nc2)CC1 [Example 54, (4-Ethylpiperazin-1-yl)-[6-[[5-fluoro-4-(2-methyl-3-propan-2-ylthieno[2,3-d]imidazol-5-yl)pyrimidin-2-yl]amino]pyridin-3-yl]methanone] | ≥ 7.70 | 6.70 to 7.70 | 6.70 to 7.70 | < 1 | 
16 | Cc1c(-c2nc(Nc3ccc(C4CCN(C)CC4)cn3)ncc2F)sc2c(C(C)C)cn(C)c(=O)c12 [Example 56, 2-(5-Fluoro-2-((5-(1-methylpiperidin-4-yl)pyridin-2-yl)amino)pyrimidin-4-yl)-7-isopropyl-3,5-dimethylthieno[3,2-c]pyridin-4(5H)-one] | ≥ 7.70 | ≥ 7.70 | 6.70 to 7.70 | > 3 | 
17 | Cc1c(-c2nc(Nc3ccc(C4CCN(C)CC4)cn3)ncc2F)sc2c(C(C)C)c[nH]c(=O)c12 [Example 60, 2-(5-Fluoro-2-((5-(1-methylpiperidin-4-yl)pyridin-2-yl)amino)pyrimidin-4-yl)-7-isopropyl-3-methylthieno[3,2-c]pyridin-4(5H)-one] | ≥ 7.70 | ≥ 7.70 | ≥ 7.70 | < 1 | 
18 | Cc1nc2cc(-c3nc(Nc4ccc(CN5CCN(CC(F)F)CC5)cn4)ncc3F)sc2n1C(C)C [Example 64, N-[5-[[4-(2,2-Difluoroethyl)piperazin-1-yl]methyl]pyridin-2-yl]-5-fluoro-4-(2-methyl-3-propan-2-ylthieno[2,3-d]imidazol-5-yl)pyrimidin-2-amine] | 6.70 to 7.70 | 6.70 to 7.70 | 5.70 to 6.70 | < 1 | 
19 | [2H]C([2H])([2H])n1cc(C(C)C)c2sc(-c3nc(Nc4ccc(C5CCN(C)CC5)cn4)ncc3F)c(C)c2c1=O [Example 85, 2-(5-Fluoro-2-((5-(1-methylpiperidin-4-yl)pyridin-2-yl)amino)pyrimidin-4-yl)-7-isopropyl-3-methyl-5-(methyl-d3)thieno[3,2-c]pyridin-4(5H)-one] | ≥ 7.70 |  | 6.70 to 7.70 | > 3 | 
